Converted amounts (≈) assume the structure as drawn. Read-outs that look alike come from different tables or passages of the source.
Experiments:
[1] = Solubility of rizatriptan in supercritical CO2, static gravimetric method; type: physicochemical; settings: for Experimental mole fraction (y) in supercritical carbon dioxide, y × 10^4: T 338.0 K (text 338.2 K)
Description: A specialized high-pressure system is employed to measure the solubility of rizatriptan using gravimetric techniques in a supercritical CO2[6]. A 200 mL vessel capable of withstanding pressures up to 35 MPa and temperatures up to 423 K is prepared with leak-free seals, valves, and fittings. All valves and connectors were 1/8 inch in size. The system’s pressure and temperature sensors are calibrated for accuracy. Next, 2000 mg of rizatriptan powder is weighed precisely using an analytical balance with 0.01 mg of sensitivity. The powder is then compacted into 5-mm diameter tablets to ensure uniformity and structural integrity. The tablets are placed in a basket inside the vessel to maximize their exposure to SC-CO2. CO2 is introduced gradually using a high-precision pump (SC-1000, SUPEREX), with the pressure increased in 0.05 MPa increments to maintain stability. The pressure is monitored and held within ± 0.01 MPa. Temperature is controlled within ± 0.1 K using a thermocouple, and the mixture is stirred at 250 rpm to ensure uniformity. […] The pressure and temperature indicators are checked to ensure stability. After equilibration, the vessel is carefully depressurized to ambient conditions to halt dissolution without losing the sample. The remaining tablets are then removed and cleaned of residual CO2. If needed, they are dried in a desiccator. The undissolved drug is weighed using a high-precision balance. The experiment is replicated at least three times to calculate the mean solubility and standard deviation. The following formula was used to calculate the mass of dissolved rizatriptan:1
Include the molecular weights of rizatriptan ([…]) and CO2 (44.01 g/mol) in the mole fraction calculations.2 3 4 5
The measurements were conducted at four isotherms (308.2 K, 318.2 K, 328.2 K, and 338.2 K) and […] pressure points (12, 15, 18, 21, 24, 27, 30 MPa). Table 3 documents the experimental conditions, including temperature, pressure, SC-CO2 density, mole fraction, standard deviation, and solubility in grams per liter.

[2] = design: method as in PMID 36559181, doi:10.1007/s40005-015-0206-z, PMID 20582194, PMID 10551439; settings: conventional oral tablets; cited from earlier work

CN(C)CCc1c[nH]c2ccc(Cn3cncn3)cc12 [Rizatriptan, Rizatriptan benzoate]
Experimental mole fraction (y) in supercritical carbon dioxide, y × 10^4 ([1]; P 12 MPa, ρCO2 384.17 kg/m^3): 0.024 × 10^4 | Experimental mole fraction (y) in supercritical carbon dioxide, y × 10^4 ([1]; P 15 MPa, ρCO2 555.33 kg/m^3): 0.136 × 10^4 | Experimental mole fraction (y) in supercritical carbon dioxide, y × 10^4 ([1]; P 18 MPa, ρCO2 651.28 kg/m^3): 0.213 × 10^4 | Experimental mole fraction (y) in supercritical carbon dioxide, y × 10^4 ([1]; P 21 MPa, ρCO2 709.59 kg/m^3): 0.279 × 10^4 | Experimental mole fraction (y) in supercritical carbon dioxide, y × 10^4 ([1]; P 24 MPa, ρCO2 751.27 kg/m^3): 0.334 × 10^4 | Experimental mole fraction (y) in supercritical carbon dioxide, y × 10^4 ([1]; P 27 MPa, ρCO2 783.19 kg/m^3): 0.388 × 10^4 | Experimental mole fraction (y) in supercritical carbon dioxide, y × 10^4 ([1]; P 30 MPa, ρCO2 809.68 kg/m^3): 0.419 × 10^4 | crossover pressure ([1]; solubility isotherms 308.2–338.2 K in SC-CO2): approximately 15 MPa | solubility at 240 min ([1]; supercritical CO2, 308.2 K to 338.2 K, 12 to 30 MPa, read-out: solubility (dissolution concentration) in SC-CO2, range over all conditions): 8 to 302 µg/mL (≈ 29.7 to 1120 µM) | solubility at 240 min ([1]; supercritical CO2, T 308.0 K (text 308.2 K), P 12 MPa, ρCO2 768.52 kg/m^3, read-out: Solubility in supercritical carbon dioxide): 61.6 µg/mL (≈ 229 µM) | solubility at 240 min ([1]; supercritical CO2, T 308.0 K (text 308.2 K), P 15 MPa, ρCO2 816.10 kg/m^3, read-out: Solubility in supercritical carbon dioxide): 88 µg/mL (≈ 327 µM) | solubility at 240 min ([1]; supercritical CO2, T 308.0 K (text 308.2 K), P 18 MPa, ρCO2 816.10 kg/m^3, read-out: Solubility in supercritical carbon dioxide): 107 µg/mL (≈ 396 µM) | solubility at 240 min ([1]; supercritical CO2, T 308.0 K (text 308.2 K), P 21 MPa, ρCO2 874.55 kg/m^3, read-out: Solubility in supercritical carbon dioxide): 138 µg/mL (≈ 512 µM) | solubility at 240 min ([1]; supercritical CO2, T 308.0 K (text 308.2 K), P 24 MPa, ρCO2 895.66 kg/m^3, read-out: Solubility in supercritical carbon dioxide): 181 µg/mL (≈ 672 µM) | solubility at 240 min ([1]; supercritical CO2, T 308.0 K (text 308.2 K), P 27 MPa, ρCO2 913.70 kg/m^3, read-out: Solubility in supercritical carbon dioxide): 210 µg/mL (≈ 779 µM) | solubility at 240 min ([1]; supercritical CO2, T 308.0 K (text 308.2 K), P 30 MPa, ρCO2 929.85 kg/m^3, read-out: Solubility in supercritical carbon dioxide): 237 µg/mL (≈ 878 µM) | solubility at 240 min ([1]; supercritical CO2, T 318.0 K (text 318.2 K), P 12 MPa, ρCO2 659.80 kg/m^3, read-out: Solubility in supercritical carbon dioxide): 40.6 µg/mL (≈ 151 µM) | solubility at 240 min ([1]; supercritical CO2, T 318.0 K (text 318.2 K), P 15 MPa, ρCO2 743.83 kg/m^3, read-out: Solubility in supercritical carbon dioxide): 83.5 µg/mL (≈ 310 µM) | solubility at 240 min ([1]; supercritical CO2, T 318.0 K (text 318.2 K), P 18 MPa, ρCO2 790.29 kg/m^3, read-out: Solubility in supercritical carbon dioxide): 114 µg/mL (≈ 423 µM) | solubility at 240 min ([1]; supercritical CO2, T 318.0 K (text 318.2 K), P 21 MPa, ρCO2 823.80 kg/m^3, read-out: Solubility in supercritical carbon dioxide): 158 µg/mL (≈ 585 µM) | solubility at 240 min ([1]; supercritical CO2, T 318.0 K (text 318.2 K), P 24 MPa, ρCO2 850.15 kg/m^3, read-out: Solubility in supercritical carbon dioxide): 213 µg/mL (≈ 790 µM) | solubility at 240 min ([1]; supercritical CO2, T 318.0 K (text 318.2 K), P 27 MPa, ρCO2 872.14 kg/m^3, read-out: Solubility in supercritical carbon dioxide): 250 µg/mL (≈ 928 µM) | solubility at 240 min ([1]; supercritical CO2, T 318.0 K (text 318.2 K), P 30 MPa, ρCO2 890.90 kg/m^3, read-out: Solubility in supercritical carbon dioxide): 269 µg/mL (≈ 998 µM) | solubility at 240 min ([1]; supercritical CO2, T 328.0 K (text 328.2 K), P 12 MPa, ρCO2 506.75 kg/m^3, read-out: Solubility in supercritical carbon dioxide): 20.4 µg/mL (≈ 75.7 µM) | solubility at 240 min ([1]; supercritical CO2, T 328.0 K (text 328.2 K), P 15 MPa, ρCO2 654.94 kg/m^3, read-out: Solubility in supercritical carbon dioxide): 57.8 µg/mL (≈ 215 µM) | solubility at 240 min ([1]; supercritical CO2, T 328.0 K (text 328.2 K), P 18 MPa, ρCO2 724.13 kg/m^3, read-out: Solubility in supercritical carbon dioxide): 114 µg/mL (≈ 421 µM) | solubility at 240 min ([1]; supercritical CO2, T 328.0 K (text 328.2 K), P 21 MPa, ρCO2 768.74 kg/m^3, read-out: Solubility in supercritical carbon dioxide): 165 µg/mL (≈ 613 µM) | solubility at 240 min ([1]; supercritical CO2, T 328.0 K (text 328.2 K), P 24 MPa, ρCO2 801.92 kg/m^3, read-out: Solubility in supercritical carbon dioxide): 216 µg/mL (≈ 800 µM) | solubility at 240 min ([1]; supercritical CO2, T 328.0 K (text 328.2 K), P 27 MPa, ρCO2 828.51 kg/m^3, read-out: Solubility in supercritical carbon dioxide): 260 µg/mL (≈ 966 µM) | solubility at 240 min ([1]; supercritical CO2, T 328.0 K (text 328.2 K), P 30 MPa, ρCO2 850.83 kg/m^3, read-out: Solubility in supercritical carbon dioxide): 288 µg/mL (≈ 1070 µM) | solubility at 240 min ([1]; supercritical CO2, T 338.0 K (text 338.2 K), P 12 MPa, ρCO2 384.17 kg/m^3, read-out: Solubility in supercritical carbon dioxide): 8.3 µg/mL (≈ 30.8 µM) | solubility at 240 min ([1]; supercritical CO2, T 338.0 K (text 338.2 K), P 15 MPa, ρCO2 555.33 kg/m^3, read-out: Solubility in supercritical carbon dioxide): 67.5 µg/mL (≈ 251 µM) | solubility at 240 min ([1]; supercritical CO2, T 338.0 K (text 338.2 K), P 18 MPa, ρCO2 651.28 kg/m^3, read-out: Solubility in supercritical carbon dioxide): 124 µg/mL (≈ 459 µM) | solubility at 240 min ([1]; supercritical CO2, T 338.0 K (text 338.2 K), P 21 MPa, ρCO2 709.59 kg/m^3, read-out: Solubility in supercritical carbon dioxide): 176 µg/mL (≈ 655 µM) | solubility at 240 min ([1]; supercritical CO2, T 338.0 K (text 338.2 K), P 24 MPa, ρCO2 751.27 kg/m^3, read-out: Solubility in supercritical carbon dioxide): 223 µg/mL (≈ 829 µM) | solubility at 240 min ([1]; supercritical CO2, T 338.0 K (text 338.2 K), P 27 MPa, ρCO2 783.19 kg/m^3, read-out: Solubility in supercritical carbon dioxide): 270 µg/mL (≈ 1000 µM) | solubility at 240 min ([1]; supercritical CO2, T 338.0 K (text 338.2 K), P 30 MPa, ρCO2 809.68 kg/m^3, read-out: Solubility in supercritical carbon dioxide): 302 µg/mL (≈ 1120 µM) | bioavailability [2]: 40–45%

From paper PMC12657942, “Measurement and modeling of rizatriptan in supercritical CO2 for pharmaceutical processing” (Scientific Reports, 2025)
